# Reference: patent US20230330077A1, “USE OF SPHINGOSINE-1-PHOSPHATE RECEPTOR AGONIST” (LG CHEM, LTD., priority 2020, published 2023)
# What was measured:
# [1] = system: oxazolone-induced animal model of atopic dermatitis; assay: oxazolone-induced animal model of atopic dermatitis in mice; assay type: in vivo, mice (Balb/c)
# Procedure: An animal model of atopic dermatitis was induced in mice (Balb/c) by the use of oxazolone. With the first sensitization day of oxazolone set as day 0, it was administered orally or transdermally starting on day 7 once a day. When the date of application of oxazolone and the date of administration of the drug were overlapped, the drug was administered about 6 hours after application of oxazolone.
# For all mice, abdominal hair was removed one day before the first application of oxazolone. Then, 1% or 0.2% oxazolone was prepared by the use of a 4:1 ratio of acetone/corn oil, and sensitization and induction on the shaved mouse abdomen and both ears were performed with the same dose and schedule as represented in Table 1 and FIG. 1.
# The test substances (the Test Compound and dexamethasone as a positive control) were prepared for each administration dose as represented in Table 2 below by the use of 0.5% methyl cellulose. In the case of the Test Compound, it was prepared in consideration of the HCl salt form. The test substances were dissolved in 0.5% methyl cellulose and then sonicated.
# The test substances were prepared by dissolving them at the concentration of 0.1% (w/v) in a solution (PEG400:100% ethanol=1:1). 5 mL of PEG400 was added to 10 mg of the test substances and sonicated. When they were dissolved to some extent, 5 mL of 100% ethanol was added thereto and sonicated to dissolve them completely. In addition, the vehicle and the test substances were prepared fresh every day and used.
# [2] = system: oxazolone-induced animal model of atopic dermatitis; assay: as above; assay type: in vivo, mice (Balb/c); details: Example 4, Table 3; for Therapeutic effect (Compared to disease-induced group): Ear thickness (Day 21 after administration): reduction in ear thickness
# [3] = Example 4, Table 3, oral administration 1 mg/kg once a day, reduction in ear thickness
# [4] = Example 4, Table 3, oral administration 1 mg/kg once a day, reduction in ear weight after autopsy
# [5] = Example 4, Table 3, oral administration 1 mg/kg once a day, reduction in epidermal thickness
# [6] = Example 4, Table 3, oral administration 1 mg/kg once a day, reduction in the blood level of IgE
# [7] = Example 5 comparative experimentation, Table 4, oral administration 1 mg/kg
# [8] = Example 5 comparative experimentation, Table 4, oral administration 1 mg/kg, blood level of IgE
# [9] = Example 5 comparative experimentation, Table 4, oral administration 0.1 mg/kg
# [10] = Example 5 comparative experimentation, Table 4, oral administration 0.3 mg/kg
smiles,measurement,setting,value
"C[C@@H]1C[C@H]2[C@@H]3CCC4=CC(=O)C=C[C@]4(C)[C@@]3(F)[C@@H](O)C[C@]2(C)[C@@]1(O)C(=O)CO [Dexamethasone, dexamethasone, reference compound]",Therapeutic effect (Compared to disease-induced group): Ear thickness (Day 21 after administration),[1]; [3],66%
same,Therapeutic effect (Compared to disease-induced group): Ear weight (Day 21 after administration),[1]; [4],54%
same,Therapeutic effect (Compared to disease-induced group): Epidermal thickness of ear tissue (Day 21 after administration),[1]; [5],55%
same,Therapeutic effect (Compared to disease-induced group): IgE (Day 21 after administration),[1]; [6],12%
"O=C(O)C[C@H]1CCc2c1[nH]c1ccc(OCc3ccc(C4CCCC4)c(C(F)(F)F)c3)cc21 [etrasimod, 2-[(3R)-7-[[4-cyclopentyl-3-(trifluoromethyl)phenyl]methoxy]-1,2,3,4-tetrahydrocyclopenta[b]indol-3-yl] acetic acid, reference compound]",Therapeutic effect (Compared to disease-induced group): Ear thickness (Day 21 after administration),[1]; [7],32%
same,Therapeutic effect (Compared to disease-induced group): Ear weight (Day 21 after administration),[1]; [7],50%
same,Therapeutic effect (Compared to disease-induced group): Epidermal thickness of ear tissue (Day 21 after administration),[1]; [7],36%
same,Therapeutic effect (Compared to disease-induced group): Mast cell accumulation (Day 21 after administration),[1]; [7],28%
same,Therapeutic effect (Compared to disease-induced group): IgE (Day 21 after administration),[1]; [8],47%
"CC(C)n1nc(Cl)c2cc(COc3ccc4c(c3)CCC(CN3CCC(C(=O)O)CC3)=C4Cl)ccc21 [Test Compound, 1-[1-Chloro-6-(3-chloro-1-isopropyl-1H-indazol-5-ylmethoxy)-3,4-dihydro-naphthalen-2-ylmethyl]-piperidine-4-carboxylic acid]",Therapeutic effect (Compared to disease-induced group): Ear thickness (Day 21 after administration),"[1]; Example 4, Table 3, oral administration 0.1 mg/kg once a day, reduction in ear thickness",37%
same,Therapeutic effect (Compared to disease-induced group): Ear weight (Day 21 after administration),"[1]; Example 4, Table 3, oral administration 0.1 mg/kg once a day, reduction in ear weight after autopsy",−2%
same,Therapeutic effect (Compared to disease-induced group): Epidermal thickness of ear tissue (Day 21 after administration),"[1]; Example 4, Table 3, oral administration 0.1 mg/kg once a day, reduction in epidermal thickness",25%
same,Therapeutic effect (Compared to disease-induced group): Mast cell accumulation (Day 21 after administration),"[1]; Example 4, Table 3, oral administration 0.1 mg/kg once a day, reduction in mast cell accumulation, ear tissue",21%
same,Therapeutic effect (Compared to disease-induced group): IgE (Day 21 after administration),"[1]; Example 4, Table 3, oral administration 0.1 mg/kg once a day, reduction in the blood level of IgE",−56%
same,Therapeutic effect (Compared to disease-induced group): Ear thickness (Day 21 after administration),"[1]; Example 4, Table 3, oral administration 0.3 mg/kg once a day, reduction in ear thickness",63%
same,Therapeutic effect (Compared to disease-induced group): Ear weight (Day 21 after administration),"[1]; Example 4, Table 3, oral administration 0.3 mg/kg once a day, reduction in ear weight after autopsy",48%
same,Therapeutic effect (Compared to disease-induced group): Epidermal thickness of ear tissue (Day 21 after administration),"[1]; Example 4, Table 3, oral administration 0.3 mg/kg once a day, reduction in epidermal thickness",56%
same,Therapeutic effect (Compared to disease-induced group): Mast cell accumulation (Day 21 after administration),"[1]; Example 4, Table 3, oral administration 0.3 mg/kg once a day, reduction in mast cell accumulation, ear tissue",34%
same,Therapeutic effect (Compared to disease-induced group): IgE (Day 21 after administration),"[1]; Example 4, Table 3, oral administration 0.3 mg/kg once a day, reduction in the blood level of IgE",38%
same,Therapeutic effect (Compared to disease-induced group): Ear thickness (Day 21 after administration),[1]; [3],61%
same,Therapeutic effect (Compared to disease-induced group): Ear weight (Day 21 after administration),[1]; [4],53%
same,Therapeutic effect (Compared to disease-induced group): Epidermal thickness of ear tissue (Day 21 after administration),[1]; [5],61%
same,Therapeutic effect (Compared to disease-induced group): Mast cell accumulation (Day 21 after administration),"[1]; Example 4, Table 3, oral administration 1 mg/kg once a day, reduction in mast cell accumulation, ear tissue",29%
same,Therapeutic effect (Compared to disease-induced group): IgE (Day 21 after administration),[1]; [6],44%
same,Therapeutic effect (Compared to disease-induced group): Ear weight (Day 21 after administration),"[1]; Example 4, Table 3, topical administration 0.01% once a day, reduction in ear weight after autopsy",65%
same,Therapeutic effect (Compared to disease-induced group): Mast cell accumulation (Day 21 after administration),"[1]; Example 4, Table 3, topical administration 0.01% once a day, reduction in mast cell accumulation, ear tissue",42%
same,Therapeutic effect (Compared to disease-induced group): IgE (Day 21 after administration),"[1]; Example 4, Table 3, topical administration 0.01% once a day, reduction in the blood level of IgE",43%
same,Therapeutic effect (Compared to disease-induced group): Ear weight (Day 21 after administration),"[1]; Example 4, Table 3, topical administration 0.03% once a day, reduction in ear weight after autopsy",72%
same,Therapeutic effect (Compared to disease-induced group): Epidermal thickness of ear tissue (Day 21 after administration),"[1]; Example 4, Table 3, topical administration 0.03% once a day, reduction in epidermal thickness",55%
same,Therapeutic effect (Compared to disease-induced group): Mast cell accumulation (Day 21 after administration),"[1]; Example 4, Table 3, topical administration 0.03% once a day, reduction in mast cell accumulation, ear tissue",59%
same,Therapeutic effect (Compared to disease-induced group): Ear thickness (Day 21 after administration),"[1]; Example 4, Table 3, topical administration 0.1% once a day, reduction in ear thickness",69%
same,Therapeutic effect (Compared to disease-induced group): Ear weight (Day 21 after administration),"[1]; Example 4, Table 3, topical administration 0.1% once a day, reduction in ear weight after autopsy",69%
same,Therapeutic effect (Compared to disease-induced group): Epidermal thickness of ear tissue (Day 21 after administration),"[1]; Example 4, Table 3, topical administration 0.1% once a day, reduction in epidermal thickness",58%
same,Therapeutic effect (Compared to disease-induced group): Mast cell accumulation (Day 21 after administration),"[1]; Example 4, Table 3, topical administration 0.1% once a day, reduction in mast cell accumulation, ear tissue",70%
same,Therapeutic effect (Compared to disease-induced group): IgE (Day 21 after administration),"[1]; Example 4, Table 3, topical administration 0.1% once a day, reduction in the blood level of IgE",71%
same,overall effect in the oxazolone-induced animal model of atopic dermatitis versus positive control,"[1]; Example 4, summary of Table 3 and FIGS. 2 to 6",superior effect in a dose-dependent manner compared to dexamethasone
same,overall effect in the animal model of atopic dermatitis versus comparative compound,"[1]; Example 5, summary of Table 4 and FIG. 7","equal or superior effects even at lower doses compared to the comparative compound, etrasimod"
same,Therapeutic effect (Compared to disease-induced group): Ear thickness (Day 21 after administration),[1]; [9],14%
same,Therapeutic effect (Compared to disease-induced group): Ear weight (Day 21 after administration),[1]; [9],31%
same,Therapeutic effect (Compared to disease-induced group): Epidermal thickness of ear tissue (Day 21 after administration),[1]; [9],21%
same,Therapeutic effect (Compared to disease-induced group): Mast cell accumulation (Day 21 after administration),[1]; [9],27%
same,Therapeutic effect (Compared to disease-induced group): IgE (Day 21 after administration),"[1]; Example 5 comparative experimentation, Table 4, oral administration 0.1 mg/kg, blood level of IgE",31%
same,Therapeutic effect (Compared to disease-induced group): Ear thickness (Day 21 after administration),[1]; [10],29%
same,Therapeutic effect (Compared to disease-induced group): Ear weight (Day 21 after administration),[1]; [10],55%
same,Therapeutic effect (Compared to disease-induced group): Epidermal thickness of ear tissue (Day 21 after administration),[1]; [10],42%
same,Therapeutic effect (Compared to disease-induced group): Mast cell accumulation (Day 21 after administration),[1]; [10],35%
same,Therapeutic effect (Compared to disease-induced group): IgE (Day 21 after administration),"[1]; Example 5 comparative experimentation, Table 4, oral administration 0.3 mg/kg, blood level of IgE",46%
same,Therapeutic effect (Compared to disease-induced group): Ear thickness (Day 21 after administration),[1]; [7],42%
same,Therapeutic effect (Compared to disease-induced group): Ear weight (Day 21 after administration),[1]; [7],69%
same,Therapeutic effect (Compared to disease-induced group): Epidermal thickness of ear tissue (Day 21 after administration),[1]; [7],44%
same,Therapeutic effect (Compared to disease-induced group): Mast cell accumulation (Day 21 after administration),[1]; [7],43%
same,Therapeutic effect (Compared to disease-induced group): IgE (Day 21 after administration),[1]; [8],72%
same,Therapeutic effect (Compared to disease-induced group): Ear thickness (Day 21 after administration),[2]; topical administration 0.01% once a day,63%
same,Therapeutic effect (Compared to disease-induced group): Epidermal thickness of ear tissue (Day 21 after administration),"[2]; topical administration 0.01% once a day, reduction in epidermal thickness",26%
same,Therapeutic effect (Compared to disease-induced group): Ear thickness (Day 21 after administration),[2]; topical administration 0.03% once a day,71%
same,Therapeutic effect (Compared to disease-induced group): IgE (Day 21 after administration),"[2]; topical administration 0.03% once a day, reduction in the blood level of IgE",74%
